Reference: patent US20220098197A1, “SALTS OF HETEROCYCLIC COMPOUND AND USE THEREOF” (priority 2019, published 2022)

Legend:
[1] = test system: neutrophils; test: PGD2-induced neutrophils migration in vitro, Boyden chamber (Example 2); format: cell-based, mice; conditions: pretreatment CT-NA 1 μM or 10 μM, OC459 10 μM; 4 hrs; P<0.01
Method: The method for isolating neutrophils and testing effect of CT-NA on neutrophils migration was briefly described as follows. 1.5% glycogen was injected intragastrically into mice at a dose of 20 ml/kg body weight. 4 hrs later, the mice were euthanized to isolate neutrophils from the peritoneal lavage. Effect of CT-NA on the migration of neutrophils was detected using the Boyden chamber assay kit (3 um pore size, Billerica, Mass.). PGD2 was used as a chemoattractant because the activated PGD2/CRTH2 receptors promoted the neutrophils migration. Firstly, the isolated neutrophils were inoculated at 4×10^5 cells/ml into the upper side of well of the Boyden chamber, and the lower chamber contained different concentrations of PGD2 (0.1, 1 and 10 μM), and the neutrophils were allowed to migrate towards PGD2 for 4 hrs at 37° C. in order to find out the suitable PGD2 concentration. After evaluation of the suitable PGD2 concentration, the migration of neutrophils pretreated with CT-NA (1 and 10 μM) and OC459 (10 μM), another effective CRTH2 inhibitor, toward PGD2 (1 μM) was assessed for 4 hrs.

[2] = test system: LPS-induced ALI mice; test: LPS-induced ALI model: oxygen saturation (SO2); format: in vivo, Balb/c mice; conditions: CT-NA 10 or 30 mg/kg (P<0.01, dose-dependent), Dex 1 mg/kg; 24 hrs after LPS
Method: Specific pathogen-free (SPF) Balb/c mice (♂/♀; 20-26 g; 8 weeks old) were purchased from Shanghai SIPPR-BK Experimental Animal Co., Ltd. Mice were kept in an isolated ventilated cage in an environment of 40-60% humidity, 24±2° C., and 12 hrs/12 hrs dark-light cycle, and had free access to food and water. The method for preparing the LPS-induced ALI model was simply described as follows. The mice were randomly divided into a control group (12 mice) and an LPS group (48 mice). The LPS group (48 mice) was further divided into four subgroups (12 mice in each subgroup). The unanaesthetized mice in the four subgroups of LPS were intragastrically administered with normal saline (NS), CT-NA at 10 mg/kg or 30 mg/kg, and Dex at 1 mg/kg, respectively. One hour later, the mice were anesthetized with sodium pentobarbital (intraperitoneal injection at 40 mg/kg), and then subjected to intratracheal instillation of NS to control group and LPS (4 mg/kg) to all LPS subgroups. 12 hrs later, the unanaesthetized mice of the LPS group were intragastrically administered with NS, CT-NA at 10 mg/kg or 30 mg/kg, or Dex at 1 mg/kg, respectively (FIG. 16). […] 24 hrs after LPS challenge, the oxygen saturation (SO2) of all mice was measured by a Moor VMS-OXY™ instrument which measured SO2 (%) in the microcirculation at the wavelength range of 500 to 650 nm. […]

[3] = test system: CS-induced ALI mice; test: CS-induced lung injury model: pulmonary histopathology (H&E); format: in vivo, Balb/c mice
Method: Model preparation: The mice were randomly divided into 5 groups (12 mice in each group), which were the control group (the mice were exposed to fresh air), the saline group (the mice were exposed to cigarette smoke), dexamethasone (Dex) group (1 mg/kg) (the mice were exposed to cigarette smoke), CT-NA 10 mg/kg group and CT-NA 30 mg/kg group (the mice were exposed to cigarette smoke). According to the grouping, the mice were intragastrically administered saline, Dex and CT-NA, respectively. Thereafter, the mice were exposed to fresh air or cigarette smoke generated from 3R4F research-grade cigarettes (containing about 600 mg TPM/m^3 and 29.9 mg nicotine/m^3) in a cuboid plastic box (65×50x×45 cm). Ten cigarettes were burned every day for seven days. After one cigarette was burned, the next cigarette was ignited. The daily body weight and general condition of the mice were checked. 24 hrs after the last exposure to the cigarette smoke, the partial pressure of oxygen (PO2) of all mice was measured by the Moor VMS-OXY™ measuring instrument, which was used to measure the oxygenated/deoxygenated hemoglobin concentration and oxygen saturation (percentage) in the microcirculation at the wavelength range of 500 to 650 nm. Then, all mice were euthanized to collect bronchoalveolar lavage fluid (BALF) for measuring the total number of inflammatory cells, cytokine levels and albumin concentration. […]

SMILES: CN([C@@H]1CCc2c(CC(=O)[O-])c3cccnc3n2C1)S(=O)(=O)c1ccc(F)cc1.[Na+] [Sodium salt hydrate]
- neutrophils migration induced by 1 μM PGD2 [1]: significantly reduced
- oxygen saturation (SO2) [2]: significantly increased
- mean pathological scores ([3]; CT-NA 10 and 30 mg/kg, Dex 1 mg/kg, 5-point scoring, dose-dependent, p<0.01): considerably reduced
- CS-induced pulmonary histopathological changes ([3]; pretreatment with CT-NA 10 and 30 mg/kg or Dex 1 mg/kg, H&E): strikingly improved
